Values of other authors in patent publication US20050065132A1, “2-alkylidene-19-nor-vitamin D derivatives for the treatment or prevention of a secon hip fracture” (Pfizer Inc, priority 2003, published 2005).
Where two headings read alike, the source gives them in different places.

Assays:
[1] = test system: serum calcium (bone calcium mobilization); settings: given for 7 days in a chronic mode, 130 and 260 pmol/day
[2] = test system: intestinal calcium transport
[3] = 130 or 260 pmol dose, chronic 7 days

Compound: C=C1[C@H](O)CC(=C/C=C2\CCC[C@]3(C)[C@@H]([C@@H](C)CCCC(C)(C)O)CC[C@@H]23)C[C@H]1O [2-Methylene-19-Nor-20S-1,25-(OH)2D3, (20S)-1α,25-dihydroxy-2-methylene-19-nor-vitamin D3]
- bone calcium mobilization [1]: most potent compound tested
- change in intestinal calcium transport [2, 3]: no significant change

Compound: C=C1/C(=C\C=C2/CCC[C@]3(C)[C@@H]([C@H](C)CCCC(C)(C)O)CC[C@@H]23)C[C@@H](O)C[C@@H]1O [1,25-(OH)2D3, 1,25-dihydroxyvitamin D3, reference compound]
- change in intestinal calcium transport ([2]; 260 pmol/day, only dose tested): expected elevation

Compound: C=C1[C@H](O)CC(=C/C=C2\CCC[C@]3(C)[C@@H]([C@H](C)CCCC(C)(C)O)CC[C@@H]23)C[C@H]1O [2-Methylene-19-Nor-1,25-(OH)2D3, 1α,25-dihydroxy-2-methylene-19-nor-vitamin D3]
- bone calcium mobilization [1]: extremely strong
- change in intestinal calcium transport [2, 3]: no intestinal calcium transport activity
